Measured values from US20250082656A1, “DOSAGE REGIMENS FOR TREATMENT OF DENGUE INFECTION” (Atea Pharmaceuticals, Inc., priority 2022, published 2025).
≈ marks a conversion by molar mass, not a printed value.

What was measured:
DENV-3 = test: microbe, parasite or virus in culture; settings: Dengue virus, DENV3, Huh-7
[1] = Cytotoxicity in HEp2 cells; assay type: cell-based; settings: human, Table 2, HEp2
Protocol: To assess the antiviral specificity of Compound 1 (AT-281), serial dilutions were incubated with various host cell lines infected with a panel of DNA and RNA viruses other than flaviviruses. The activity of Compound 1 (AT-281) was measured in infected cells using the neutral red assay to determine the effective concentration required to inhibit viral replication 50% (EC50) (described in Example 3) and the threshold concentration required to obtain a perceptible effect on 50% of the cells incubated without virus (CC50). Compound 1 (AT-281) had no activity against the DNA viruses tested and was only weakly or not active against several RNA viruses (Table 2).

DENV-1 = test: microbe, parasite or virus in culture; settings: Dengue virus, DENV1, Huh-7
Dengue serotype 3 = test: In vitro antiviral potency, summary over strains, Dengue serotype 3; assay type: cell-based; settings: Dengue virus
flaviviruses = test: organism not typed; settings: 144 h, read-out: concentration to achieve 50% inhibition (EC50) of the virus-induced cytopathic effect (CPE), range over 11 strains of 7 flaviviruses in 3 cell types, 3- to 6-day incubation
West Nile (WNV) = test: Neutral red assay of virus-induced CPE, WNV; assay type: cell-based; settings: Kern 515, WNo2, Huh-7, neutral red assay
DENV-2 = test: microbe, parasite or virus in culture; settings: Dengue virus, DENV2, Huh-7
[2] = Plasma PK after single oral dose of AT-752, monkeys; assay type: in vivo, cynomolgus monkeys; settings: Monkey, single oral AT-752 300 mg/kg
Protocol: Male cynomolgus monkeys were administered 300 mg/kg Compound 2 (AT-752). Blood samples were collected up to 24 hrs. post dose, plasma separated and analyzed for Compound 1 (AT-281), Compound 3 (AT-551), and Compound 6 (AT-273) by LC-MS/MS. Data are express as mean+/−SD (n=3-5/time point). The x-axis is time post the dose measured in hours and the y-axis is the plasma concentration of the metabolites measured in nanomoles/mL). The experimental procedure is provided in Example 14.
Male non-naïve cynomolgus monkeys (Hainan Jingang Laboratory Animal Co. Ltd., China), at least 2 kg body weight, were individually housed during the study in stainless steel mesh cages, provided ad libitum access to RO water, fed twice daily (except on the day of dosing when they were fed once) with ˜60 g Certified Monkey Diet each feed (Beijing Vital Keao Feed Co., Ltd., Beijing, China) and given daily treats of fresh fruit. They (n=5) were administered a dose of Compound 2 (AT-752) at 300 mg/kg in 40% PEG400, 10% solutol HS15, 50% 100 mM citrate buffer, pH 4.5 (v/v) by oral gavage, and blood samples (˜0.5 mL) were collected at 1, 2, 4, 8, 12 and 24 h post dose. Plasma was separated at each time point for pharmacokinetics, and stored at −70° C. […] Separately, three monkeys were given an oral dose of Compound 2 (AT-752) as powder in capsules at 60 mg/kg ([…] (AT-281) equivalent dose of 55 mg/kg), and blood samples collected at 12, 24 and 48 h post dose.
Pharmacokinetic measurements for FIGS. 11, 12, 13, 14, and 15 were analyzed using LC-MS/MS according to the protocol described herein. Plasma samples were prepared for MS analysis by adding internal standards and extracting with 20 volumes chilled ACN. After vortex (800 rpm for 10 min) and centrifugation (4,000 rpm, 15 min, 4° C.), the supernatants (25 μL) were diluted with an equal volume of H2O, mixed and spun again. After adding internal standards, the PBMC samples (10^6 cells) were lyzed with 300 μL MeOH/H2O (70:30, v/v) and 40 mM dibutylammonium acetate (DBAA), mixed by vortex and centrifuged (12,000 rpm, 15 min, 4° C.). Aliquots of the supernatants (35 μL) were dried under nitrogen and reconstituted in H2O, then mixed and spun again. […] A binary nonlinear gradient with mobile phases A (0.1% formic acid in water) and B (0.1% formic acid in ACN) were used to elute samples at 0.8 mL/min, with a run time of 5 min. […] A binary nonlinear gradient with mobile phases A (0.001% NHr H2O, 0.18 mM DBAA in H2O) and B (10 mM N,N-dimethyl-hexylamine, 3 mM NH4OAc in ACN/H2O (50.50, v/v)) were used to elute samples at 0.5 mL/min, with a run time of 3 min. Standards in 50% MeOH were used for calibration. […] Internal standards (ISS) as described previously (Good et al., Preclinical evaluation of AT-527, a novel guanosine nucleotide prodrug with potent, pan-genotypic activity against hepatitis C virus. PLos One 15:e02271045) were used to correct for variations in recovery.
Data analysis of the pharmacokinetic data generated according to Example 21 and presented in FIGS. 11, 12, 13, 14, and 15 was analyzed according to the procedure described herein. Plasma concentrations of Compound 1 (AT-281), Compound 3 (AT-551) and Compound 6 (AT-273) were subjected to non-compartmental pharmacokinetic analysis using Phoenix WinNonlin software (version 6.3 or above, Pharsight, Mountain View, CA). The linear/log trapezoidal rule was applied in obtaining the PK parameters.

Dengue-2 (DENV-2) = test: Virus yield reduction (VYR) assay, DENV-2; assay type: cell-based
DENV4 RdRp domain = test: Thermal shift assay, DENV4 RdRp domain; settings: RdRp domain DENV4, 100 μM compound

Row | SMILES | EC50 (DENV-3) [nM] | CC50 [1] [nM] | EC50 (DENV-1) [nM] | EC50 (Dengue serotype 3) [nM] | EC50 (flaviviruses) [nM] | EC50 (West Nile (WNV)) [nM] | EC50 (DENV-2) [nM] | time present in plasma [2] | AUC0-24 h ([2]; plasma) [µM·h] | Cmax ([2]; plasma) [nM] | Tmax ([2]; plasma) [h] | EC50 (Dengue-2 (DENV-2); DENV2, BHK-21) [nM] | EC50 (Dengue-2 (DENV-2); DENV2, Huh-7) [nM] | EC90 (Dengue-2 (DENV-2); DENV2, read-out: EC90 against Dengue serotype 2) [µg/mL] | ΔTM (DENV4 RdRp domain) [°C]
1 | CNc1nc(N)nc2c1ncn2[C@@H]1O[C@H](CO[P@](=O)(N[C@@H](C)C(=O)OC(C)C)Oc2ccccc2)[C@@H](O)[C@@]1(C)F [Compound 1, isopropyl ((R)-(((2R,3R,4R,5R)-5-(2-amino-6-(methylamino)-9H-purin-9-yl)-4-fluoro-3-hydroxy-4-methyltetrahydrofuran-2-yl)methoxy)(phenoxy)phosphoryl)-L-alaninate] | 750 | > 100000 | 570 | < 1500 | 190 to 1410 | 1410 | 300 | more than 4 h | 9.5 ± 3.7 | 3700 ± 1500 | 1 | 6500 | 640 | ~0.2 (≈ 0.344 µM) | –
2 | C[C@@]1(F)[C@H](O)[C@@H](COP(=O)(O)OP(=O)(O)OP(=O)(O)O)O[C@H]1n1cnc2c(=O)[nH]c(N)nc21 [Compound 5] | – | – | – | – | – | – | – | – | – | – | – | – | – | – | 4.1 ± 0.1
3 | C[C@@]1(F)[C@H](O)[C@@H](CO)O[C@H]1n1cnc2c(=O)[nH]c(N)nc21 [Compound 6, 2′-fluoro-2′-C-methylguanosine] | – | – | – | – | – | – | – | – | 7.8 ± 2.4 | 800 ± 200 | – | – | – | – | –
